Biological target: T1, Rat IKK-2 (Rattus norvegicus, UniProt Q9QY78)
T1 sequence (Q9QY78 1-757): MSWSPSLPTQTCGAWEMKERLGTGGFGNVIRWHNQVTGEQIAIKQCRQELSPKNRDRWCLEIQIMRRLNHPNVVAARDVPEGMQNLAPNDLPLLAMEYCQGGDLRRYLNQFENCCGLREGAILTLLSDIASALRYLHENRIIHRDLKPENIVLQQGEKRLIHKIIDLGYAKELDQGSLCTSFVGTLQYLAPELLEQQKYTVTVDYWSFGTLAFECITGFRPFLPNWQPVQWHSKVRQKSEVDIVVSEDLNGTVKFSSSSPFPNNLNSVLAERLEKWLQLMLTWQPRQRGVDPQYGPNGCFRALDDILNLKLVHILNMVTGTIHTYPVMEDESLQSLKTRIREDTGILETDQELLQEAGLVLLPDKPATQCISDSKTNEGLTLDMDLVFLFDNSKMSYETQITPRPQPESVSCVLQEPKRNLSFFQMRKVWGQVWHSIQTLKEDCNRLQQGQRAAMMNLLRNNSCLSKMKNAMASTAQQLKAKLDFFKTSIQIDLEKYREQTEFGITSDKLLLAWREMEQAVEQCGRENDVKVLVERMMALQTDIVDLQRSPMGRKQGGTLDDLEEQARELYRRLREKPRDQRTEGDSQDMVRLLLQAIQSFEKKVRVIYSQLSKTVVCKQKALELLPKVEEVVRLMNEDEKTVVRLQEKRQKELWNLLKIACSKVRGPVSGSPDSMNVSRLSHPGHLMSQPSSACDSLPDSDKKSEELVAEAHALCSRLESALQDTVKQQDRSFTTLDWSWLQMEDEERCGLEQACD
Assay: Rat IKK-2 enzyme assay
Type: biochemical
Details: read-out: IC50 (μM) rIKK-2

`NC(=O)Nc1cn(-c2cccc(-c3ccc(F)cc3O)c2)nc1C(N)=O` [Example 92, 4-[(aminocarbonyl)amino]-1-(4′-fluoro-2′-hydroxy-1,1′-biphenyl-3-yl)-1H-pyrazole-3-carboxamide] and `NC(=O)Nc1cn(-c2cccc(-c3cc(F)ccc3O)c2)nc1C(N)=O` [Example 93, 4-[(aminocarbonyl)amino]-1-(5′-fluoro-2′-hydroxy-1,1′-biphenyl-3-yl)-1H-pyrazole-3-carboxamide] are within 1.5-fold of each other in IC50: 2.66 µM for the first, 1.82 µM for the second.

Going from `NC(=O)Nc1cn(-c2ccc(S(=O)(=O)C3CCCCC3)cc2)nc1C(N)=O` [Example 192, 1-(3-carbamoyl-1-(4-(cyclohexylsulfonyl)phenyl)-1H-pyrazol-4-yl)urea] to `Cc1cc(-n2cc(NC(N)=O)c(C(N)=O)n2)ccc1I` [Example 8, 1-(4-iodo-3-methyl-phenyl)-4-ureido-1H-pyrazole-3-carboxylic acid amide], the IC50 falls from 0.297 µM to 0.089 µM (3.3-fold). The second is the more potent here.

Going from `CN(C)CCN(C)C(=O)c1ccc(-c2ccc(-n3cc(NC(N)=O)c(C(N)=O)n3)cc2)cc1F` [Example 160, 4-[(aminocarbonyl)amino]-1-(4′-{[[2-(dimethylamino)ethyl](methyl)amino]carbonyl}-3′-fluoro-1,1′-biphenyl-4-yl)-1H-pyrazole-3-carboxamide] to `NC(=O)Nc1cn(-c2ccc(-c3ccc(C(=O)O)c(F)c3)cc2)nc1C(N)=O` [Example 97, 4′-{3-(aminocarbonyl)-4-[(aminocarbonyl)amino]-1H-pyrazol-1-yl}-3-fluoro-1,1′-biphenyl-4-carboxylic acid], the IC50 falls from 7.19 µM to 0.18 µM (40-fold). The second is the more potent here.

`NC(=O)Nc1cn(-c2ccc(-c3ccc(C(=O)OCc4ccc(F)cc4)c(F)c3)cc2)nc1C(N)=O` [Example 164, 4-fluorobenzyl 4′-{3-(aminocarbonyl)-4-[(aminocarbonyl)amino]-1H-pyrazol-1-yl}-3-fluoro-1,1′-biphenyl-4-carboxylate] showed an IC50 of 7.27 µM.
